# From DBAASP
# “And” between values parts separate entries of the source, which are not always exact repeats. Equal values may be shown once.
# Key:
# Assay in all cases: ≥ marks a high value that may be exact or a test limit, other limits are often not marked, values filed in µg/mL are converted to µM
# [1] = test system: Acinetobacter baumannii ATCC BAA-747
# [2] = test system: Bacillus subtilis IFO 3134
# [3] = test system: Enterobacter cloacae BCRC 10401
# [4] = test system: Enterococcus faecium ATCC 700221
# [5] = test system: Escherichia coli ATCC 25922
# [6] = test system: Escherichia coli BCRC 10675
# [7] = test system: Escherichia coli IFO 12734
# [8] = test system: Klebsiella aerogenes BCRC 10370
# [9] = test system: Klebsiella oxytoca BCRC 13985
# [10] = test system: Klebsiella pneumoniae ATCC 700603
# Lactococcus garvieae = test system: Lactococcus garvieae
# [11] = test system: Listeria monocytogenes BCRC 14845
# [12] = test system: Pseudomonas aeruginosa ATCC 27583
# [13] = test system: Pseudomonas aeruginosa BCRC 10944
# [14] = test system: Pseudomonas aeruginosa IFO 12582
# [15] = test system: Staphylococcus aureus ATCC 43300
# [16] = test system: Staphylococcus aureus BCRC 10780
# [17] = test system: Staphylococcus aureus BCRC 10781
# [18] = test system: Staphylococcus aureus IFO 12732
# [19] = test system: Staphylococcus xylosus BCRC 12930
# [20] = test system: Streptococcus equinus BCRC 14729
# Streptococcus iniae = test system: Streptococcus iniae
# [21] = test system: Vibrio alginolyticus BCRC 12829
# Vibrio alginolyticus = test system: Vibrio alginolyticus
# [22] = test system: Vibrio anguillarum serotype O1
# Vibrio harveyi = test system: Vibrio harveyi
# [23] = test system: Vibrio parahaemolyticus BCRC 10806
# Vibrio parahaemolyticus = test system: Vibrio parahaemolyticus
# [24] = test system: Yersinia enterocolitica BCRC 13999
# [25] = test system: Bacillus subtilis ATCC 62037
# [26] = test system: Candida albicans ATCC 10231
# [27] = test system: Cryptococcus neoformans ATCC 34881
# [28] = test system: Escherichia coli ATCC 27325
# [29] = test system: Pseudomonas putida ATCC 17426
# [30] = test system: Saccharomyces cerevisiae ATCC 44774
# [31] = test system: Salmonella enterica subsp. enterica serovar Enteritidis ATCC 13076
# [32] = test system: Staphylococcus aureus ATCC 15752
# [33] = test system: Streptococcus mutans ATCC 25175
# Aeromonas hydrophila 12 = test system: Aeromonas hydrophila 12
# [34] = test system: Aeromonas intestinalis 58209
# [35] = test system: Aeromonas sobria CR79-1-1
# [36] = test system: Escherichia coli DH5alpha
# [37] = test system: Flavobacterium columnare G4
# [38] = test system: Pseudomonas fluorescens 56-12-10
# [39] = test system: Pseudomonas fluorescens biotype I W81-11
# [40] = test system: Vibrio anguillarum E-3-11
# [41] = test system: Vibrio anguillarum SGL 8542
# [42] = test system: Yersinia ruckeri SC90-2-4
# Pseudomonas aeruginosa = test system: Pseudomonas aeruginosa
# [43] = test system: Staphylococcus aureus ATCC 6538P
# [44] = test system: Staphylococcus aureus KO-4
# [45] = test system: Trichophyton mentagrophytes IFO 5466
# [46] = test system: Trypanosoma brucei brucei GUT Tat3.1
smiles,measurement,setting,value
CC[C@H](C)[C@H](NC(=O)CN)C(=O)NCC(=O)N[C@@H](CCCCN)C(=O)N[C@@H](Cc1ccccc1)C(=O)N[C@@H](CC(C)C)C(=O)N[C@@H](Cc1cnc[nH]1)C(=O)N[C@@H](CO)C(=O)N[C@@H](C)C(=O)N[C@@H](CCCCN)C(=O)N[C@@H](CCCCN)C(=O)N[C@@H](Cc1c[nH]c2ccccc12)C(=O)NCC(=O)N[C@@H](CCCCN)C(=O)N[C@@H](C)C(=O)N[C@@H](Cc1ccccc1)C(=O)N[C@H](C(=O)NCC(=O)N[C@@H](CCC(=O)O)C(=O)N[C@H](C(=O)N[C@@H](CCSC)C(=O)N[C@@H](CC(N)=O)C(=O)N[C@@H](CO)C(N)=O)[C@@H](C)CC)C(C)C [GIGKFLHSAKKWGKAFVGEIMNS],MIC,[1],8 µM
same,MIC,[2],9.98 µM
same,MIC,[3],12.8 µM
same,MIC,[4],16 µM
same,MIC,[5],8 µM
same,MIC,[6],25.5 µM
same,MIC,[7],4.79 µM
same,MIC,[8],≥ 51.1 µM
same,MIC,[9],25.5 µM
same,MIC,[10],64 µM
same,MIC,Lactococcus garvieae,12.8 µM
same,MIC,[11],≥ 51.1 µM
same,MIC,[12],≥ 32 µM
same,MIC,[13],25.5 µM
same,MIC,[14],9.98 µM
same,MIC,[15],> 128 µM
same,MIC,[16],≥ 51.1 µM
same,MIC,[17],≥ 51.1 µM
same,MIC,[18],9.98 µM
same,MIC,[19],≥ 51.1 µM
same,MIC,[20],≥ 51.1 µM
same,MIC,Streptococcus iniae,≥ 51.1 µM
same,MIC,[21],≥ 51.1 µM
same,MIC,Vibrio alginolyticus,≥ 51.1 µM
same,MIC,[22],3.19 µM
same,MIC,Vibrio harveyi,≥ 51.1 µM
same,MIC,[23],≥ 51.1 µM
same,MIC,Vibrio parahaemolyticus,1.6 µM
same,MIC,[24],≥ 51.1 µM
CC(C)[C@H](NC(=O)[C@H](CCCCN)NC(=O)CNC(=O)CNC(=O)[C@H](CCC(N)=O)NC(=O)[C@H](CCCCN)NC(=O)CNC(=O)[C@H](CCCN=C(N)N)NC(=O)CNC(=O)[C@@H](N)CCCCN)C(=O)N[C@@H](CCCN=C(N)N)C(=O)N[C@@H](C)C(=O)N[C@@H](CCCCN)C(=O)N[C@@H](C)C(=O)O [KGRGKQGGKVRAKA],MIC,[25],≥ 44.4 µM
same,MIC,[26],> 88.8 µM
same,MIC,[27],≥ 88.8 µM
same,MIC,[28],≥ 88.8 µM
same,MIC,[29],≥ 44.4 µM
same,MIC,[30],≥ 88.8 µM
same,MIC,[31],≥ 88.8 µM
same,MIC,[32],≥ 88.8 µM
same,MIC,[33],≥ 88.8 µM
CC[C@H](C)[C@H](N)C(=O)N[C@@H](Cc1ccccc1)C(=O)N[C@@H](Cc1cnc[nH]1)C(=O)N[C@@H](Cc1cnc[nH]1)C(=O)N[C@H](C(=O)N[C@@H](Cc1ccccc1)C(=O)N[C@@H](CCCCN)C(=O)NCC(=O)N[C@H](C(=O)N[C@H](C(=O)N[C@@H](Cc1cnc[nH]1)C(=O)N[C@H](C(=O)NCC(=O)N[C@@H](CCCCN)C(=O)N[C@H](C(=O)N[C@H](C(=O)N[C@@H](Cc1cnc[nH]1)C(=O)N[C@@H](CCCN=C(N)N)C(=O)N[C@@H](CC(C)C)C(=O)N[C@H](C(=O)N[C@H](C(=O)NCC(N)=O)[C@@H](C)O)C(C)C)[C@@H](C)CC)[C@@H](C)O)C(C)C)C(C)C)[C@@H](C)CC)[C@@H](C)CC [IFHHIFKGIVHVGKTIHRLVTG],MIC,Aeromonas hydrophila 12,≥ 160 µM
same,MIC,[34],14.1 µM
same,MIC,[35],14.1 µM
same,MIC,[36],7.07 µM
same,MIC,[37],≥ 56.6 µM
same,MIC,[38],14.1 µM
same,MIC,[39],14.1 µM
same,MIC,[40],28.3 µM
same,MIC,[41],≥ 56.6 µM
same,MIC,[42],28.3 µM
CC[C@H](C)[C@H](NC(=O)[C@H](CCCN=C(N)N)NC(=O)[C@H](CC(C)C)NC(=O)[C@H](CCCN=C(N)N)NC(=O)[C@H](CC(C)C)NC(=O)[C@@H](N)CCCN=C(N)N)C(=O)NCC(=O)N[C@@H](CCCN=C(N)N)C(=O)N[C@@H](CCCN=C(N)N)C(N)=O [RLRLRIGRR],MIC,Pseudomonas aeruginosa,669 µM
same,MIC,[43],0.837 µM and 1.67 µM
same,MIC,[44],≥ 502 µM
same,MIC,[45],≥ 41.8 µM
same,MIC,[46],≥ 500 µM
